This is an account of results in ChEMBL document CHEMBL1156550, “Synthesis and pharmacological evaluation of pentacyclic 6a,7-dihydrodiindole and 2,3-dihydrodiindole derivatives as novel melatoninergic ligands” (Bioorg Med Chem, 2008).

The target of experiment [1] is Melatonin receptor type 1A (Homo sapiens, UniProt P48039). Kind of experiment: Displacement of 2-[125I]iodomelatonin from human melatonin MT1 receptor expressed in CHO cells. It is filed as cell-based.
For experiment [2], the target named is T1, Melatonin receptor type 1B (Homo sapiens, UniProt P49286).
T1 sequence (P49286 whole entry): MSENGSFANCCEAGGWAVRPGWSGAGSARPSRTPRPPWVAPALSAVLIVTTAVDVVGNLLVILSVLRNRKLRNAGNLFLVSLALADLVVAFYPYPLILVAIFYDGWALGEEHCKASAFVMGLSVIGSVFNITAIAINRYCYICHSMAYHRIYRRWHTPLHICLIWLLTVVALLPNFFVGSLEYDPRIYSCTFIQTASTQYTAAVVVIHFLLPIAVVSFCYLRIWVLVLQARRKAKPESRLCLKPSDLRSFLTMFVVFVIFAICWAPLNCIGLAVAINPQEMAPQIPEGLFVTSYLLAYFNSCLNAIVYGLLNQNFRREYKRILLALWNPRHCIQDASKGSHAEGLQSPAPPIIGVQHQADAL
Description: Displacement of 2-[125I]iodomelatonin from human melatonin MT2 receptor expressed in CHO cells. It is filed as cell-based.

The species entered for experiment [3] is Homo sapiens. Description: Selectivity ratio of Ki for human melatonin MT1 receptor to Ki for human melatonin MT2 receptor.

Sequence of Melatonin receptor type 1A (P48039 whole entry): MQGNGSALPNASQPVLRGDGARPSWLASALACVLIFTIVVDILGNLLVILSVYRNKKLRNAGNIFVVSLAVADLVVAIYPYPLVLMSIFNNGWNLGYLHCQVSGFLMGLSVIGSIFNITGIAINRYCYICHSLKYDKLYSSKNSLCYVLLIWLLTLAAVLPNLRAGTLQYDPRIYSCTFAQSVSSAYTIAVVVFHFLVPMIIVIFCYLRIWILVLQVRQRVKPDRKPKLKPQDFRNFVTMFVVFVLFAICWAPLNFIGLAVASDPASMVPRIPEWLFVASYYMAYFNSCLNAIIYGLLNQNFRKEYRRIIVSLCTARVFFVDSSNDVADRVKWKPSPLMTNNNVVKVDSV

Turning to `CC(=O)NCCc1c2n(c3ccccc13)CC1Cc3ccccc3N1C2` (stereo unspecified), the values for the Ki in experiment [1] and in experiment [2] were 1 µM and 1.7 µM, respectively.
Take `COc1ccc2[nH]c(CN3c4ccccc4C[C@H]3CO)c(CCNC(C)=O)c2c1`: the Ki in experiment [1] amounted to 0.0098 µM; in experiment [2], 0.0078 µM. Further, the Ratio Ki in experiment [3] came out at 1.25.
`COc1ccc2[nH]c(CN3c4ccccc4CC3CO)c(CCNC(C)=O)c2c1` (racemic): the Ki was 0.0175 µM in experiment [1] and 0.0362 µM in experiment [2]. Besides, in experiment [3], the Ratio Ki stood at 0.48.
For `COc1ccc2c(c1)c(CCNC(C)=O)c1n2CC2Cc3ccccc3N2C1` (stereo unspecified), the Ki in experiment [1] was found to be 0.319 µM; in experiment [2], 0.0652 µM. In experiment [3], the Ratio Ki is 4.89.
The corresponding values for `COc1ccc2c(c1)CC(CO)N2Cc1[nH]c2ccc(OC)cc2c1CCNC(C)=O` (racemic) are 0.0345 µM, 0.0336 µM and 1.03.
`COc1ccc2c(c1)CC1Cn3c(c(CCNC(C)=O)c4cc(OC)ccc43)CN21` (stereo unspecified): the Ki in experiment [1] was 1.8 µM; in experiment [2], 0.41 µM.

The Ki is the equilibrium dissociation constant of an inhibitor or competing ligand from its target. Read a low Ki as higher affinity.
